Experimental data: US11684675B2, “Dimeric collagen hybridizing peptides and methods of using” (University of Utah Research Foundation, priority 2015, dated 2023)

Legend:
[1] = Triple helix melting point (Tm) by circular dichroism at 225 nm; assay type: physicochemical; conditions: for melting point: Example 3; for Tm (° C.): triple helix melting
Experimental: (§1) FIGS. 5A, 5B, 5C, and 5D show the thermal denaturation of fully assembled CHPs and subsequent cooling to initial temperature. Samples were heated at 1° C./min from their initial temperature final temperature of 90° C. Sample was then cooled at 1° C./min to the starting temperature. (A) Thermal denaturation and partial reassembly of CHP CF-6d (150 μM) monitored at 225 nm. Sample was measured from 4° C. to 90° C. (B) Thermal denaturation and partial reassembly of CHP […] (75 μM, corresponding to 150 μM strand concentration) monitored at 225 nm. Sample was measured from 4° C. to 90° C. (C) Thermal denaturation and partial reassembly of CHP CF-9 (150 μM) monitored at 225 nm. Sample was measured from 10° C. to 90° C. (D) Thermal denaturation and partial reassembly of CHP CF-9d (75 μM, corresponding to 150 μM strand concentration) monitored at 225 nm. Sample was measured from 10° C. to 90° C.
FIGS. 11A and 11B show the First Derivative of mean residue ellipticity (MRE) at 225 nm in CD. […] There is no significant change in melting point between the monomeric and dimeric forms of the same peptide.
(§2) Circular Dichroism: Circular Dichroism (CD) was measured for all peptides at 225 nm. Melting curves were taken on peptides between 10 and 80° C. at a heating rate of 0.5° C./min, with pauses at each 1° C. Refolding experiments were performed after peptide solutions were incubated at 4° C. for at least 12 hours. Concentrations were normalized to strand concentration.

[2] = CD refolding (triple helix assembly) at 10° C. monitored at 225 nm; assay type: physicochemical; conditions: for folded after 2 hours: CD refolding
Experimental: Conversion was assumed to be at 100% after 96 h incubation at 4° C., and max trimer concentration was measured via CD ellipticity at 10° C. Samples were preheated to 80° C. in the sample cuvette for 10 min before being transferred directly to the sample holder held at a constant 10° C. Sample measurement began immediately. Initial time point for analysis was determined by measuring time for a blank (lx PBS) to thermally equilibrate in these conditions.
For all peptides, conversion was assumed to be at 100% after 96 h incubation at 4° C., and max trimer concentration was measured via CD ellipticity at 10° C. Samples were preheated to 80° C. in the sample cuvette for 10 min before being transferred directly to the sample holder held at a constant 10° C. Sample measurement began immediately. Initial time point for analysis was determined by measuring time for a blank (1×PBS) to thermally equilibrate in these conditions. This was set as the zero point for all peptides, as the large jump in CD due to temperature makes the initial jump irresolvable. (A) Rate of assembly of CHP 9 (60, 30, and 15 μM), over 2 h, monitored at 225 nm. (B) Rate of assembly of CHP 9d (30, 15, and 7.5 μM, corresponding to same CHP strand concentration from panel A), over 2 h, monitored at 225 nm. (C) Rate of assembly of CHP 6 (150 and 75 μM), over 2 h, monitored at 225 nm.
FIGS. 12A and 12B show CD refolding at 10° C. of CMPs monitored at 225 nm. CMPs were heated to 80° C. for 5 minutes before being placed into the CD and initial 2 min of monitored data was removed to eliminate thermal transition. Signal was normalized to that of a fully folded peptide.
as §2

[3] = CD thermal denaturation and cooling gradient 90 to 4° C., refolding; assay type: physicochemical; conditions: cooling 1° C./min from 90° C.
Experimental: as §1
The dimeric CHPs can also form their triple helices much more readily during slow cooling when compared to their monomeric counterparts. After thermal denaturation and heating to 90° C., the peptides were exposed to a decreasing thermal gradient from 90 to 4° C. (1° C./min) during which the ellipticity at 225 nm was monitored. During these cooling gradients, the dimeric CHPs began refolding at a higher temperature than the monomers with the same number of repeat units. […]

[4] = tested on: crosslinked gelatin films; test: Binding of CF-labelled CHPs to crosslinked gelatin films at 37° C. with and without preheating; design: species or system porcine; conditions: 20 μM, 37° C. overnight, PBS wash 20 h, FIG. 6C
Experimental: FIGS. 3A and 3B show the affinity of CHPs to gelatin films as monitored by fluorescence of conjugated CF fluorophore (492 ex, 533 em). (A) Fluorescence of CHPs bound to crosslinked gelatin after incubation at 37° C. overnight with no workup. (B) Fluorescence of CHPs remaining in crosslinked gelatin after incubation at 37° C. overnight without preheating, followed by washing with 1×PBS at 37° C. (20 h).
(A) Fraction of peptide remaining in a crosslinked gelatin film after 17 h at 25° C. (10 total washes). Values are normalized to fluorescence remaining in wells after 6 washes at 4° C. (>95% removal of CHPs 9r, 6r, and 5r). All washes performed in 1×PBS. (B) CHPs (15 μM) premixed into 10% porcine gelatin and preheated to 80° C. (10 min) before being added to a 96 well plate. Excess CHP-gelatin mixture was removed, then the premix was incubated at 4° C. for 2 hours. Wells were washed at 4° C., 5 times (>95% removal of CHPs 9r, 6r, and 5r). Wells were then washed for 2 hours (6 washes total) at 25° C. to monitor CHP remaining in the well. (C) Fluorescence of CHPs remaining in crosslinked gelatin after incubation at 37° C. overnight without preheating, followed by washing with 1×PBS at 37° C. (20 h). (D) Fluorescence of CHPs remaining in crosslinked gelatin after incubation at 37° C. overnight (80° C. preheating, 10 min), followed by washing with 1×PBS at 37° C. (20 h).
Dimeric CHPs were assessed for their ability to bind to collagen strands in crosslinked gelatin films. CHP solutions (20 μM in PBS) were added directly to the crosslinked gelatin films. For heated experiments, CHPs were preheated to 80° C. for 10 minutes before addition. Peptides were allowed to fully equilibrate with the gel at 37° C. overnight before being exposed to repeated washes (4×, PBS) at 37° C. to fully remove any non-specifically bound peptide and to determine binding level at body temperature. To measure retention, peptides were bound as previously described, but were subsequently washed with PBS 37° C. (5×1 h, 1×12 h) to measure retention within the gelatin films. […] Additionally, after a period of 20 hours, higher level of the dimeric CHP remained in the gelatin compared to the monomeric CHP.
A major limitation of the use of CHP in vivo, is the requirement of the triple helix to be fully disassembled before being injected. […] For this test, peptide solutions were allowed to warm to room temperature before being added (50 μL, 20 μM) to previously prepared crosslinked gelatin films. Solutions were then incubated at 37° C. overnight before removing the solution. Wells were washed at 37° C. with PBS (20 h) to determine binding. Preheated samples were prepared and incubated in the same way, but with preheating (80° C., 10 min) before being added to the crosslinked gelatin wells.

Substance | melting point [1] | Tm (° C.) ([1]; Table 1) | Tm (° C.) ([1]; Table 2) | refolding after two hours of incubation ([2]; 10° C., same strand concentration) | folded after 2 hours ([2]; 75 μM) | temperature below the reported Tm until which no significant refolding was observed [3] | binding to gelatin wells at 37° C. without preheating [4] | folded after 2 hours ([2]; 60 μM)
(GPO)6 [compound 6] | 37 °C | 37 (SEQ ID NO: 59) ° C. | 37 (SEQ ID NO: 59) ° C. | did not reach its half maximal refolding after two hours | 28% | approximately 10 °C | do not have a strong enough affinity to the gelatin to bind effectively at physiologic temperature | 
(GPO)9 [compound 9] | 68 °C | 68 (SEQ ID NO: 56) ° C. | 68 (SEQ ID NO: 56) ° C. |  |  | ~15 °C | unable to bind significantly without preheating | 40%
